USRE50528E1, “Compounds and compositions for modulating EGFR mutant kinase activities” (Yuhan Corporation, priority 2014, dated 2025)

Experiments:
[1] = target: T1, EGFR mutant T790M (Homo sapiens, UniProt P00533, T790M); experiment: Kinase inhibition assay, EGFR mutant T790M; details: biochemical potency;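 note: truncated human EGFR mutant enzyme preincubated two hours with compound, then ATP plus ULight-PolyGT peptide for one hour, Europium-labeled antibody LANCE detection, IC50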
T1 construct: truncated human JAK3, EGFR mutants such as del E746-A750; purchased Carna Biosciences
T1 sequence (P00533 669-1210 T790M limits assumed): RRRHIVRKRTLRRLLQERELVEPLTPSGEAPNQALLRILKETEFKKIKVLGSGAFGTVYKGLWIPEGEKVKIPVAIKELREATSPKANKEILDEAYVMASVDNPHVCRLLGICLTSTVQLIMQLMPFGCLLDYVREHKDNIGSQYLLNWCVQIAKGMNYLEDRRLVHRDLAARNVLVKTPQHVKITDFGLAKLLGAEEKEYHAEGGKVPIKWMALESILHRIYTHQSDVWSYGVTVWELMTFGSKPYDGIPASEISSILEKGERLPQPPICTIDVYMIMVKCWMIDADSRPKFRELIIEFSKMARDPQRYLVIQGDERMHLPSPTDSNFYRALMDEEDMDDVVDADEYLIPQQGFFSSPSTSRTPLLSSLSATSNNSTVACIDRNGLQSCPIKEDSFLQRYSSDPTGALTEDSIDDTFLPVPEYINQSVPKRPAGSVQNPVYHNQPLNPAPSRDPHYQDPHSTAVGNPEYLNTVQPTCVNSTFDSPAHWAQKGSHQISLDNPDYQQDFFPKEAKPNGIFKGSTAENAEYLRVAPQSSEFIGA

[2] = target: T2, EGFR mutant Del19 (E746-A750) (Homo sapiens, UniProt P00533, DEL746-750); experiment: Kinase inhibition assay, EGFR del E746-A750; assay type: biochemical; details: read-out: EGFR mutants Del19 (E746-A750);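 note: truncated human EGFR mutant kinase, two-hour preincubation with compound, then one-hour reaction with ATP and ULight-PolyGT peptide, LANCE Europium-antibody phosphorylation readout, IC50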
T2 construct: truncated human JAK3, EGFR mutants such as del E746-A750; purchased Carna Biosciences
T2 sequence (P00533 with tags, fused parts or gaps DEL746-750 limits assumed): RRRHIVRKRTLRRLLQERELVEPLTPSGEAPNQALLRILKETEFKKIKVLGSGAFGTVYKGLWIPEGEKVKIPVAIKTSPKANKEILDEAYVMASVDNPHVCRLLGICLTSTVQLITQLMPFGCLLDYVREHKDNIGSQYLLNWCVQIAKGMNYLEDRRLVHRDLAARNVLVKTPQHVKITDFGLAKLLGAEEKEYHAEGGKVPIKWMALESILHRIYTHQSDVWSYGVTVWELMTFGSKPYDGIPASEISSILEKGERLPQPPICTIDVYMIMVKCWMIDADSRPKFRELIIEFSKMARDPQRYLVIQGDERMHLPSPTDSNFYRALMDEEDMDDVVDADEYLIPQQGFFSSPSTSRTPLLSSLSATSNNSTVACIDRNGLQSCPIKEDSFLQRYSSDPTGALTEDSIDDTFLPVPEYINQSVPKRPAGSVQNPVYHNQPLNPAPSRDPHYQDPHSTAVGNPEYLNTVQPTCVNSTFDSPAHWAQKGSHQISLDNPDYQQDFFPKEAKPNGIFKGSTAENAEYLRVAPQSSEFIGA

[3] = target: T3, EGFR mutant L858R (Homo sapiens, UniProt P00533, L858R); experiment: Kinase inhibition assay, EGFR L858R; assay type: biochemical; details: read-out: EGFR mutants L858R;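 note: truncated human EGFR L858R kinase with compound preincubation, ULight-PolyGT peptide phosphorylation read by Europium-antibody Lance detection, IC50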
T3 construct: truncated human JAK3, EGFR mutants such as del E746-A750; purchased Carna Biosciences
T3 sequence (P00533 669-1210 L858R limits assumed): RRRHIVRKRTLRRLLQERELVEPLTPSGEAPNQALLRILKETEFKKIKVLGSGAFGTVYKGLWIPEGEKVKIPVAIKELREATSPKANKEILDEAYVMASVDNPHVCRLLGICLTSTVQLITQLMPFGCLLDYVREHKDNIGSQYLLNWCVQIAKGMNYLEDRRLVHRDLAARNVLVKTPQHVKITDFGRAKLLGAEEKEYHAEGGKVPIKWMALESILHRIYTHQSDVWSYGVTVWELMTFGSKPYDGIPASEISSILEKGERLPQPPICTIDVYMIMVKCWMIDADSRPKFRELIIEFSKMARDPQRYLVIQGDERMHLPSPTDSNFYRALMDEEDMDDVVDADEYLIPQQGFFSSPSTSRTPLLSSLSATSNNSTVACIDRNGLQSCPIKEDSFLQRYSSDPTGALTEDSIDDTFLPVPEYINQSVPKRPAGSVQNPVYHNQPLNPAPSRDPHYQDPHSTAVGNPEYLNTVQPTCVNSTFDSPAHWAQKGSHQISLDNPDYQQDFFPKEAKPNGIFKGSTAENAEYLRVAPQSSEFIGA

[4] = target: T4, EGFR mutant L858R/T790M (Homo sapiens, UniProt P00533, L858R/T790M); experiment: Kinase inhibition assay, EGFR L858R/T790M; assay type: biochemical; details: read-out: EGFR mutants L858R/T790M;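 note: truncated human enzyme preincubated two hours with compound, then one hour with one millimolar ATP and ULight-PolyGT peptide, Europium-labeled antibody detection, IC50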
T4 construct: truncated human JAK3, EGFR mutants such as del E746-A750; purchased Carna Biosciences
T4 sequence (P00533 669-1210 T790M/L858R limits assumed): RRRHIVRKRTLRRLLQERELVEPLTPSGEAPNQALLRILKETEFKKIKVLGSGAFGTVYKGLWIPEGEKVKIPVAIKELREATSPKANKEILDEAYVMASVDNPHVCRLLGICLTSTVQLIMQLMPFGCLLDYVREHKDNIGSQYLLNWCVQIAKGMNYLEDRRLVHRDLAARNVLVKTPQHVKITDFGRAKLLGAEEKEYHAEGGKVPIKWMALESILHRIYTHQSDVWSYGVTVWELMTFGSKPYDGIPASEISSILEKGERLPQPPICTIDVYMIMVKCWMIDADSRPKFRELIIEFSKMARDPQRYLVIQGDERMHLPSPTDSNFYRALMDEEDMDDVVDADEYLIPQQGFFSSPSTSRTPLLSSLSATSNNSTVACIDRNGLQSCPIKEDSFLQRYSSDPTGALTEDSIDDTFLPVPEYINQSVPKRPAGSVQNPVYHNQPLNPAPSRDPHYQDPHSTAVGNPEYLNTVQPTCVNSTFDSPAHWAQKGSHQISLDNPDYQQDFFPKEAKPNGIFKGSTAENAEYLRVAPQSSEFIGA

[5] = target: T5, EGFR mutant Del19/T790M (Homo sapiens, UniProt P00533, DEL746-750/T790M); experiment: Kinase inhibition assay, EGFR del E746-A750/T790M; assay type: biochemical; details: read-out: EGFR mutants Del19/T790M
T5 construct: truncated human JAK3, EGFR mutants such as del E746-A750; purchased Carna Biosciences
T5 sequence (P00533 with tags, fused parts or gaps DEL746-750/T790M limits assumed): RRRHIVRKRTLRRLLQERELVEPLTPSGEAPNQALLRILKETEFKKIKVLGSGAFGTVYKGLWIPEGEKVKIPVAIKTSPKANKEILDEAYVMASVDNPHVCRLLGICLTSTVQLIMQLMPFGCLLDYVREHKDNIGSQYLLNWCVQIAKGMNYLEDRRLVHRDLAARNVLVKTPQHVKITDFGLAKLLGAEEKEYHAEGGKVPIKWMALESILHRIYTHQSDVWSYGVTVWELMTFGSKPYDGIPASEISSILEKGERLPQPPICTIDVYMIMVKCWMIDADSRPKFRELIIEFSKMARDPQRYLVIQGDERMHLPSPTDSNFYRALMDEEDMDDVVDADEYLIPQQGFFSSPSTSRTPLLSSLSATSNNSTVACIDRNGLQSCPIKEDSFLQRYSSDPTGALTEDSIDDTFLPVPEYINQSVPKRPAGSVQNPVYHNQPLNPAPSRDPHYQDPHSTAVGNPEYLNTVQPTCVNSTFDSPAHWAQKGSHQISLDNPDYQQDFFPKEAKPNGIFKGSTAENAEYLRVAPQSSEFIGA

[6] = target: T6, JAK3 (Homo sapiens, UniProt P52333); experiment: Kinase inhibition assay, JAK3; details: biochemical potency;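 note: IC50 against purified truncated human JAK3 preincubated with compound, then reacted with ATP and ULight-Jak1 peptide, phosphorylation read by Europium-labeled antibody LANCE detection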
T6 construct: EGFR and JAK3 (JH1domain-catalytic) kinases, and mutant forms thereof; purchased Carna Biosciences
T6 sequence (P52333 822-1111 limits assumed): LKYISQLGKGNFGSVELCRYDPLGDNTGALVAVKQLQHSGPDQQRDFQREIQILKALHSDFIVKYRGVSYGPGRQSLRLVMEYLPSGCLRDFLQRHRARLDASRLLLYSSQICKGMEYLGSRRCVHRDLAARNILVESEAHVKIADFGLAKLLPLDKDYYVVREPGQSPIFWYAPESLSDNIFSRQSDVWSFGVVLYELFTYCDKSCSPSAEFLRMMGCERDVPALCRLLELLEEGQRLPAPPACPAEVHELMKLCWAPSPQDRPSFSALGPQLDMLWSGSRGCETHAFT

[7] = target: T7, SYK (Homo sapiens, UniProt P43405); experiment: Kinase inhibition assay, SYK; assay type: biochemical; details: biochemical potency;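 note: purified full-length human SYK pre-incubated 30 min with compound, then ULight-TK peptide phosphorylation for 1 h, detected with Europium-labeled antibody in Lance buffer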
T7 construct: Purified human, full-length SYK, KDR; purchased Carna Biosciences

[8] = target: T8, KDR (Homo sapiens, UniProt P35968); experiment: Kinase inhibition assay, KDR; assay type: biochemical; details: biochemical potency;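 note: purified full-length human KDR, 30 min preincubation with compound, then 1 h reaction with ATP and Ulight-Jak1 peptide substrate, phosphorylation read by Lance Europium antibody detection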
T8 construct: Purified human, full-length SYK, KDR; purchased Carna Biosciences
T8 sequence (P35968 20-1356): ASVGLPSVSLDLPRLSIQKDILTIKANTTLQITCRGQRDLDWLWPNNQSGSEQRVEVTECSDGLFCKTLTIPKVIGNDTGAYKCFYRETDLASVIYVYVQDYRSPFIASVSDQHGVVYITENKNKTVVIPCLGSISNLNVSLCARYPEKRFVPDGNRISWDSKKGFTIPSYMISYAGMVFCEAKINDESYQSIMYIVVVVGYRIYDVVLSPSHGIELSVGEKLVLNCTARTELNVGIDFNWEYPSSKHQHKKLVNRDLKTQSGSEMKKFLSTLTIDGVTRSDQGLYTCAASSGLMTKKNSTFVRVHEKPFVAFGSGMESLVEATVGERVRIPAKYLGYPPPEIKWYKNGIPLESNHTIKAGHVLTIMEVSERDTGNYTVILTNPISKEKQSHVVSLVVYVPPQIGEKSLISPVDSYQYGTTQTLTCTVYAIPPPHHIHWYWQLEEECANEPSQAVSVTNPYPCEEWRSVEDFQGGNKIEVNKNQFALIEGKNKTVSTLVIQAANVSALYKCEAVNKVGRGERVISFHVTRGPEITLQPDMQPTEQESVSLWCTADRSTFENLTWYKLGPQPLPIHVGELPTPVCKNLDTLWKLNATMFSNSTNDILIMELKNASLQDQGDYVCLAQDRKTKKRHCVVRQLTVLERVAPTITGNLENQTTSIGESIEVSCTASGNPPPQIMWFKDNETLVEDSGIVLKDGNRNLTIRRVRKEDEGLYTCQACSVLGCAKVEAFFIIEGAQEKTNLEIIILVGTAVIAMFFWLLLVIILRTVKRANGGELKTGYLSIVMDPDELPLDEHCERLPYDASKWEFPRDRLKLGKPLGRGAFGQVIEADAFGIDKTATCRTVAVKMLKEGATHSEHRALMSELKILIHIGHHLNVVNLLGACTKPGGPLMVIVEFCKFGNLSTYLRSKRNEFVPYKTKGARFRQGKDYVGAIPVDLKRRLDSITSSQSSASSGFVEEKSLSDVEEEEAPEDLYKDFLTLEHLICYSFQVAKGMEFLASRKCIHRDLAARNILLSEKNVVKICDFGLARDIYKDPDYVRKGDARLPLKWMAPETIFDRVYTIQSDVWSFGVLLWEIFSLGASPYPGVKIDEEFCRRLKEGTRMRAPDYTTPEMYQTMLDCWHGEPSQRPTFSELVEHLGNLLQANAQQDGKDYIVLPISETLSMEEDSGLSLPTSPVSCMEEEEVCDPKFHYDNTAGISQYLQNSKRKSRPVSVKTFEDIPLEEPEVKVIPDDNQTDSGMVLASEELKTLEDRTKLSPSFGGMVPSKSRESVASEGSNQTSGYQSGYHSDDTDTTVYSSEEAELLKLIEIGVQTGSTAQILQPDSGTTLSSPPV

[9] = tested on: H2073 (EGFR wildtype); experiment: Cell viability assay, H2073; assay type: cell-based; details: NCI-H2073; cellular potency; 72-hour incubation; ATPLite;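 note: NSCLC cell line whose survival relies on wildtype EGFR, treated with serially diluted compound, cytotoxic effect judged from remaining cell viability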
[10] = tested on: PC9 (EGFR del E746-A750 mutant); experiment: Cell viability assay, PC9; assay type: cell-based; details: for Selectivity over wildtype, Wildtype vs mutant H2073/PC9 (fold): cellular potency ratio; for IC50: cellular potency, 72-hour incubation, ATPLite, read-out: EGFR Mutants PC9;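 for all read-outs here: NSCLC PC9 cells, whose viability relies on EGFR del E746-A750, exposed to serially diluted compound for 72 h at 37 °C, ATPLite read-out, IC50, H2073 as EGFR wildtype line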
[11] = tested on: H1975 (EGFR L858R/T790M mutant); experiment: Cell viability assay, H1975; assay type: cell-based; details: for IC50: Homo sapiens, NCI-H1975, cellular potency, 72-hour incubation, ATPLite, read-out: EGFR Mutants H1975; for Selectivity over wildtype, Wildtype vs mutant H2073/H1975 (fold): cellular potency ratio;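 for all read-outs here: NSCLC cells whose survival relies on EGFR L858R/T790M, exposed 72 h to serially diluted compound, ATP-based viability readout, with the H2073 line (wildtype EGFR dependent) as wildtype comparator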

SMILES | IC50 [1] | IC50 [2] | IC50 [3] | IC50 [4] | IC50 [5] | IC50 [6] | IC50 [7] | IC50 [8] | IC50 [9] | IC50 [10] | IC50 [11] | Selectivity over wildtype, Wildtype vs mutant H2073/PC9 (fold) [10] | Selectivity over wildtype, Wildtype vs mutant H2073/H1975 (fold) [11]
C=CC(=O)Nc1cc(Nc2nccc(-n3cc(CN4CCC4)cn3)n2)c(OC)cc1N1CCOCC1 [Compound 34, N-(5-(4-(4-(azetidin-1-ylmethyl)-1H-pyrazol-1-yl)pyrimidin-2-ylamino)-4-methoxy-2-morpholinophenyl)acrylamide] | < 20 nM | < 20 nM | 20 to 200 nM | < 20 nM | < 20 nM | 20 to 200 nM | 201 to 1000 nM | > 1000 nM | – | – | – | – | –
C=CC(=O)Nc1cc(Nc2ncc(C)c(-n3cc(CN4CCC4)cn3)n2)c(OC)cc1N1CCCOCC1 [Compound 40, N-(5-(4-(4-(azetidin-1-ylmethyl)-1H-pyrazol-1-yl)-5-methylpyrimidin-2-ylamino)-4-methoxy-2-(1,4-oxazepan-4-yl)phenyl)acrylamide] | < 20 nM | < 20 nM | 20 to 200 nM | < 20 nM | < 20 nM | < 20 nM | > 1000 nM | > 1000 nM | – | – | – | – | –
C=CC(=O)Nc1cc(Nc2nccc(-n3cc(CN(C)C)c(C)n3)n2)c(OC)cc1N1CCN(C)CC1 [Compound 47, N-(5-(4-(4-((dimethylamino)methyl)-3-methyl-1H-pyrazol-1-yl)pyrimidin-2-ylamino)-4-methoxy-2-(4-methylpiperazin-1-yl)phenyl)acrylamide] | < 20 nM | < 20 nM | < 20 nM | < 20 nM | < 20 nM | < 20 nM | 201 to 1000 nM | > 1000 nM | – | – | – | – | –
C=CC(=O)Nc1cc(Nc2ncc(Cl)c(-n3cc(CN4CC(O)C4)c(C)n3)n2)c(OC)cc1N1CCOCC1 [Compound 49, N-(5-(5-chloro-4-(4-((3-hydroxyazetidin-1-yl)methyl)-3-methyl-1H-pyrazol-1-yl)pyrimidin-2-ylamino)-4-methoxy-2-morpholinophenyl)acrylamide] | < 20 nM | < 20 nM | < 20 nM | < 20 nM | < 20 nM | < 20 nM | 201 to 1000 nM | > 1000 nM | – | – | – | – | –
C=CC(=O)Nc1cc(Nc2nccc(-n3cc(CN4CCC4)c(C)n3)n2)c(OC)cc1-c1ccccc1 [Compound 65, N-(4-(4-(4-(azetidin-1-ylmethyl)-3-methyl-1H-pyrazol-1-yl)pyrimidin-2-ylamino)-5-methoxybiphenyl-2-yl)acrylamide] | 201 to 1000 nM | < 20 nM | 20 to 200 nM | < 20 nM | < 20 nM | 20 to 200 nM | > 1000 nM | > 1000 nM | – | – | – | – | –
CCC(=O)Nc1cc(Nc2nccc(-n3cc(CN(C)C)c(-c4ccccc4)n3)n2)c(OC)cc1N1CCOCC1 [Compound 157, N-(5-(4-(4-((dimethylamino)methyl)-3-phenyl-1H-pyrazol-1-yl)pyrimidin-2-ylamino)-4-methoxy-2-morpholinophenyl)propionamide, reference compound] | > 1000 nM | > 1000 nM | > 1000 nM | > 1000 nM | > 1000 nM | – | > 1000 nM | – | > 1000 nM | > 1000 nM | > 1000 nM | <20 fold | <20 fold
CCC(=O)Nc1cc(Nc2nccc(-n3cc(CN4CCC4)c(-c4ccccc4)n3)n2)c(OC)cc1N1CCOCC1 [Compound 158, N-(5-(4-(4-(azetidin-1-ylmethyl)-3-phenyl-1H-pyrazol-1-yl)pyrimidin-2-ylamino)-4-methoxy-2-morpholinophenyl)propionamide, reference compound] | > 1000 nM | > 1000 nM | > 1000 nM | > 1000 nM | > 1000 nM | – | > 1000 nM | – | > 1000 nM | 20 to 200 nM | 201 to 1000 nM | <20 fold | <20 fold

Second part, led by results:

IC50 [1] | IC50 [2] | IC50 [3] | IC50 [4] | IC50 [5] | IC50 [6] | IC50 [7] | IC50 [8] | IC50 [9] | IC50 [10] | IC50 [11] | SMILES | Selectivity over wildtype, Wildtype vs mutant H2073/PC9 (fold) [10] | Selectivity over wildtype, Wildtype vs mutant H2073/H1975 (fold) [11]
< 20 nM | < 20 nM | < 20 nM | < 20 nM | < 20 nM | < 20 nM | 201 to 1000 nM | 201 to 1000 nM | – | – | – | C=CC(=O)Nc1cc(Nc2nccc(-n3cc(CN4CCC4)c(C)n3)n2)c(OC)cc1N1CCN(C)CC1 [Compound 17, N-(5-(4-(4-(azetidin-1-ylmethyl)-3-methyl-1H-pyrazol-1-yl)pyrimidin-2-ylamino)-4-methoxy-2-(4-methylpiperazin-1-yl)phenyl)acrylamide] | – | –
< 20 nM | < 20 nM | < 20 nM | < 20 nM | < 20 nM | < 20 nM | 20 to 200 nM | 201 to 1000 nM | > 1000 nM | < 20 nM | 20 to 200 nM | C=CC(=O)Nc1cc(Nc2ncc(C)c(-n3cc(CN4CC(O)C4)cn3)n2)c(OC)cc1N1CCOCC1 [Compound 19, N-(5-(4-(4-((3-hydroxyazetidin-1-yl)methyl)-1H-pyrazol-1-yl)-5-methylpyrimidin-2-ylamino)-4-methoxy-2-morpholinophenyl)acrylamide] | 100-200 fold | 20-100 fold
– | < 20 nM | 20 to 200 nM | < 20 nM | < 20 nM | – | > 1000 nM | > 1000 nM | > 1000 nM | 20 to 200 nM | 20 to 200 nM | C=CC(=O)Nc1cc(Nc2nccc(-n3cc(CN4CCC4)c(-c4ccc(C)cc4)n3)n2)c(OC)cc1N1CCOCC1 [Compound 82, N-(5-(4-(4-(azetidin-1-ylmethyl)-3-p-tolyl-1H-pyrazol-1-yl)pyrimidin-2-ylamino)-4-methoxy-2-morpholinophenyl)acrylamide] | 101-200 fold | 101-200 fold
> 1000 nM | > 1000 nM | > 1000 nM | 201 to 1000 nM | 201 to 1000 nM | – | 201 to 1000 nM | – | > 1000 nM | > 1000 nM | > 1000 nM | Cc1cc(Nc2nccc(-n3cc(CN4CC[C@@H](O)C4)c(C)n3)n2)cc(C)c1OCCN1CCCC1 [Compound 148, (R)-1-((1-(2-(3,5-dimethyl-4-(2-(pyrrolidin-1-yl)ethoxy)phenylamino)pyrimidin-4-yl)-3-methyl-1H-pyrazol-4-yl)methyl)pyrrolidin-3-ol, reference compound] | <20 fold | <20 fold
> 1000 nM | > 1000 nM | > 1000 nM | 201 to 1000 nM | > 1000 nM | – | > 1000 nM | – | > 1000 nM | > 1000 nM | > 1000 nM | Cc1cc(Nc2nccc(-n3cc(CN4CC(O)C4)c(C)n3)n2)cc(C)c1OCCO [Compound 149, 1-((1-(2-(4-(2-hydroxyethoxy)-3,5-dimethylphenylamino)pyrimidin-4-yl)-3-methyl-1H-pyrazol-4-yl)methyl)azetidin-3-ol, reference compound] | <20 fold | <20 fold
> 1000 nM | > 1000 nM | 20 to 200 nM | 20 to 200 nM | 201 to 1000 nM | – | 201 to 1000 nM | – | > 1000 nM | > 1000 nM | > 1000 nM | Cc1cc(Nc2nccc(-n3cc(CN4CC(O)C4)c(C4CC4)n3)n2)cc(C)c1OCCO [Compound 151, 1-((3-cyclopropyl-1-(2-(4-(2-hydroxyethoxy)-3,5-dimethylphenylamino)pyrimidin-4-yl)-1H-pyrazol-4-yl)methyl)azetidin-3-ol, reference compound] | <20 fold | <20 fold
> 1000 nM | > 1000 nM | > 1000 nM | 20 to 200 nM | 20 to 200 nM | – | > 1000 nM | – | > 1000 nM | > 1000 nM | > 1000 nM | C=C(F)C(=O)Nc1cc(Nc2nccc(-n3cc(CN4CCC4)c(-c4ccccc4)n3)n2)c(OC)cc1N1CCOCC1 [Compound 159, N-(5-(4-(4-(azetidin-1-ylmethyl)-3-phenyl-1H-pyrazol-1-yl)pyrimidin-2-ylamino)-4-methoxy-2-morpholinophenyl)-2-fluoroacrylamide, reference compound] | <20 fold | <20 fold
